In patent US8685924B2, “Preventives/remedies for stress urinary incontinence and method of screening the same” (Takeda Pharmaceutical Company Limited, priority 2004, dated 2014):

Key:
[1] = test system: urethane-anesthetized female rats; test: Antagonism of the leak point pressure increase by WAY-161503 / WAY-163909, abdominal wall-electrically stimulating method (Example 3); format: in vivo, rat; settings: for leak point pressure after drug administration / leak point pressure increase / leak point pressure before drug administration: i.v., mean ± SEM; for leak point pressure before drug administration: baseline
Protocol: SD female rats (body weight 180-350 g) were anesthetized with urethane (Wako Pure Chemical Industries, Ltd.), and the spinal cord was transected at T8-9 level to eliminate the reflex voiding. In addition, the nerve to the iliococcygeus muscle/pubococcygeus muscle on the one side was transected. During operation, halothane (Takeda Pharmaceutical Company Limited) anesthesia was added when necessary. A catheter (PE-90, Clay Adams) was inserted into the bladder and secured with a ligature, and the incised part of each of the abdominal muscle and skin was closed with sutures. The abdominal skin near the diaphragm was incised at two left and right positions to newly expose the abdominal muscle. An Evans Blue dye (Merck) solution was injected into the bladder, and the bladder volume was adjusted to 0.2-0.3 ml. The bladder catheter was connected to a pressure transducer, and the signals of the transducer were sent to a computer via an amplifier (blood pressure amplification unit AP-641G; NIHON KOHDEN) and an analog-to-digital converter (BIOPAC; MP100), and recorded on a hard disc. The data were analyzed on a computer using software (BIOPAC; AcqKnowledge). The exposed abdominal muscle was electrostimulated using an electrostimulator (SEN-3301; NIHON KODEN) and an isolator (SS-202J; NIHON KODEN), and the presence or absence of incontinence from the meatus urethra was observed. The electrostimulation was applied at a voltage of 2.5-50 V, duration of 0.5 milisec, and frequency 50 Hz for 1 sec, thereby gradually increasing the intravesical pressure. The peak intravesical pressure during stimulation of the abdominal wall was measured and, of the trials with observed incontinence, the lowest peak intravesical pressure was defined as the leak point pressure. Serotonin 5-HT receptor agonist, WAY-161503 (5-HT2C receptor agonist), WAY-163909 (5-HT2C receptor agonist), DOI (5-HT2A/2B/2C receptor agonist), mCPP (5-HT2B/2C receptor partial agonist), eltoprazine (5-HT1A/1B/2C receptor partial agonist), 8-OH-DPAT (5-HT1A receptor agonist), sumatryptan (5-HT1B/1D receptor agonist) and BW723C86 (5-HT2B receptor agonist) were intravenously administered, and the leak point pressure was compared before and after the administration. DOI, mCPP and eltoprazine were dissolved in saline, and other drugs were dissolved in DMA/PEG400 (1:1), and they were intravenously administered at 1 ml/kg and 0.5 mg/kg, respectively. Depending on the experiment, RS-102221 (serotonin 5-HT2C receptor antagonist) or SB221284 (serotonin 5-HT2B/2C receptor antagonist) was intravenously administered 5 min before WAY-161503 or WAY-163909 administration, and an antagonistic effect against the WAY-161503 or WAY-163909-induced increment of the leak point pressure was examined. RS-102221 and SB221284 were both dissolved in DMA/PEG400 (1:1) and intravenously administered at 0.5 ml/kg.

[2] = test system: urethane-anesthetized female rats; test: Antagonism of the leak point pressure increase by WAY-161503 / WAY-163909, direct bladder compression method (Example 4); format: in vivo, rat; settings: for leak point pressure after drug administration / leak point pressure increase / leak point pressure before drug administration: i.v., mean ± SEM; for leak point pressure before drug administration: baseline
Protocol: SD female rats (body weight 180-350 g) were anesthetized with urethane (Wako Pure Chemical Industries, Ltd.), and halothane (Takeda Pharmaceutical Company Limited) anesthesia was added when necessary during operation.
The spinal cord was transected at T8-9 level to eliminate the reflex voiding. The lower abdomen was incised in the median line, a catheter for intravesical pressure measurement (PE-90, Clay Adams) was inserted into the bladder and secured with a ligature, and the intravesical pressure was measured via a pressure transducer. Urine was emptized in advance by bilaterally pressing the bladder with two swabs, and a 0.1% Evans blue (Merck) solution (0.4 mL) was injected into the bladder. The bladder was gradually compressed bilaterally with two swabs, and the intravesical pressure upon saline leakage from the urethral orifice was measured and defined as a leak point pressure. The measurement of the leak point pressure was repeated, and the average value of the final five stable measures was taken as the value before drug administration. Thereafter, the drug was intravenously administered, the leak point pressure was measured again 20 min later, and the value after the drug administration was determined. DOI, mCPP and eltoprazine were dissolved in saline, and other drugs were dissolved in DMA/PEG400 (1:1), and intravenously administered at 1 ml/kg and 0.5 mg/kg, respectively. Depending on the experiment, RS-102221 or SB221284 (showing serotonin 5-HT2C receptor antagonist activity) was administered, 5 min later, WAY-161503 or WAY-163909 was administered, leak point pressure was measured 10 min later, and a competitive assay with the action of WAY-161503 or WAY-163909 was performed. RS-102221 and SB221284 were both dissolved in DMA/PEG400 (1:1), and intravenously administered at 0.5 ml/kg.

[3] = antagonist 0.1 mg/kg, i.v. 5 min before WAY-161503 0.3 mg/kg
[4] = antagonist 0.3 mg/kg, i.v. 5 min before WAY-161503 0.3 mg/kg
[5] = antagonist 0.1 mg/kg, i.v. 5 min before WAY-163909 0.3 mg/kg
[6] = antagonist 0.3 mg/kg, i.v. 5 min before WAY-163909 0.3 mg/kg
[7] = antagonist alone 0.3 mg/kg, agonist: solvent, WAY-163909 series
[8] = intravenous, against WAY-163909
[9] = antagonist 1 mg/kg, i.v. 5 min before WAY-161503 0.3 mg/kg
[10] = antagonist 3 mg/kg, i.v. 5 min before WAY-161503 0.3 mg/kg
[11] = antagonist 3 mg/kg, i.v. 5 min before WAY-163909 0.3 mg/kg
[12] = antagonist 1 mg/kg, i.v. + WAY-161503 0.3 mg/kg
[13] = antagonist 3 mg/kg, i.v. + WAY-161503 0.3 mg/kg
[14] = antagonist 3 mg/kg, i.v. + WAY-163909 0.3 mg/kg
[15] = antagonist 1 mg/kg, i.v. 5 min before WAY-163909 0.3 mg/kg
[16] = antagonist alone 3 mg/kg, agonist: solvent, WAY-161503 series
[17] = antagonist alone 3 mg/kg, agonist: solvent, WAY-163909 series

CSc1cc2c(cc1C(F)(F)F)N(C(=O)Nc1cccnc1)CC2 [SB221284]
suppression of the leak point pressure increasing action ([1]; against WAY-161503): suppressed the leak point pressure increasing action by WAY-161503 significantly | leak point pressure after drug administration [1, 3]: 66.9 ± 9.8 cmH2O | leak point pressure increase [1, 3]: 13.6 ± 3.8 cmH2O | leak point pressure after drug administration [1, 4]: 46.8 ± 6.2 cmH2O | leak point pressure increase [1, 4]: −3.6 ± 1.4 cmH2O | leak point pressure before drug administration ([1]; antagonist 0.1 mg/kg, i.v. + WAY-161503 0.3 mg/kg): 53.3 ± 7.0 cmH2O | leak point pressure before drug administration ([1]; antagonist 0.3 mg/kg, i.v. + WAY-161503 0.3 mg/kg): 50.4 ± 6.3 cmH2O | leak point pressure after drug administration [2, 5]: 59.4 ± 3.9 cmH2O | leak point pressure increase [2, 5]: 6.2 ± 3.1 cmH2O | leak point pressure after drug administration [2, 6]: 60.7 ± 3.9 cmH2O | leak point pressure increase [2, 6]: 0.4 ± 1.7 cmH2O | leak point pressure after drug administration [2, 7]: 63.0 ± 2.0 cmH2O | leak point pressure increase [2, 7]: −1.2 ± 2.2 cmH2O | leak point pressure before drug administration ([2]; antagonist 0.1 mg/kg, i.v. + WAY-163909 0.3 mg/kg): 53.2 ± 3.4 cmH2O | leak point pressure before drug administration ([2]; antagonist 0.3 mg/kg, i.v. + WAY-163909 0.3 mg/kg): 60.3 ± 4.0 cmH2O | leak point pressure before drug administration [2, 7]: 64.2 ± 1.2 cmH2O | suppression of the leak point pressure increase [2, 8]: significantly suppressed an increase in the leak point pressure by WAY-163909

COc1cc(OC)c(C(=O)CCCCN2CCC3(CC2)NC(=O)NC3=O)cc1NS(=O)(=O)c1ccc(C(F)(F)F)cc1 [RS102221]
leak point pressure after drug administration [1, 9]: 68.5 ± 6.1 cmH2O | leak point pressure increase [1, 9]: 20.2 ± 4.1 cmH2O | leak point pressure after drug administration [1, 10]: 50.0 ± 6.3 cmH2O | leak point pressure increase [1, 10]: 9.7 ± 2.1 cmH2O | leak point pressure after drug administration [1, 11]: 53.0 ± 7.0 cmH2O | leak point pressure increase [1, 11]: 6.5 ± 2.4 cmH2O | leak point pressure before drug administration [1, 12]: 48.3 ± 7.5 cmH2O | leak point pressure before drug administration [1, 13]: 40.3 ± 5.5 cmH2O | leak point pressure before drug administration [1, 14]: 46.5 ± 5.9 cmH2O | dose at which suppression of the leak point pressure increase was significant ([1]; intravenous, against WAY-161503 (0.3 mg/kg, i.v.) or WAY-163909 (0.3 mg/kg, i.v.)): 3 mg/kg | leak point pressure after drug administration [2, 9]: 67.5 ± 5.4 cmH2O | leak point pressure increase [2, 9]: 12.8 ± 1.9 cmH2O | leak point pressure after drug administration [2, 15]: 74.1 ± 3.4 cmH2O | leak point pressure increase [2, 15]: 11.6 ± 2.4 cmH2O | leak point pressure after drug administration [2, 10]: 70.5 ± 1.8 cmH2O | leak point pressure increase [2, 10]: 9.8 ± 2.7 cmH2O | leak point pressure after drug administration [2, 11]: 70.9 ± 3.0 cmH2O | leak point pressure increase [2, 11]: 7.4 ± 1.4 cmH2O | leak point pressure after drug administration [2, 16]: 60.7 ± 6.2 cmH2O | leak point pressure increase [2, 16]: 3.8 ± 1.9 cmH2O | leak point pressure after drug administration [2, 17]: 59.2 ± 6.6 cmH2O | leak point pressure increase [2, 17]: −0.2 ± 2.1 cmH2O | leak point pressure before drug administration [2, 12]: 54.7 ± 6.1 cmH2O | leak point pressure before drug administration ([2]; antagonist 1 mg/kg, i.v. + WAY-163909 0.3 mg/kg): 62.5 ± 3.1 cmH2O | leak point pressure before drug administration [2, 13]: 60.7 ± 3.3 cmH2O | leak point pressure before drug administration [2, 14]: 63.6 ± 3.3 cmH2O | leak point pressure before drug administration [2, 16]: 56.8 ± 5.5 cmH2O | leak point pressure before drug administration [2, 17]: 59.4 ± 7.0 cmH2O | dose at which suppression of the leak point pressure increase was significant ([2]; intravenous, against WAY-161503 (0.3 mg/kg, i.v.)): 3 mg/kg | dose at which suppression of the leak point pressure increase was significant [2, 8]: 3 mg/kg
